{"source": "PubChem BioAssay AID588764", "about": "(Broad Institute, 2011)", "note": "Records with an inconclusive call do not appear. Calls of active or inactive are those of the source. How the calls were made is not given here.", "data": [{"biological_target": "Histone acetyltransferase RTT109 (Candida albicans (strain SC5314 / ATCC MYA-2876)) (UniProt Q5AAJ8)", "sequence (Q5AAJ8 whole entry, looked up)": "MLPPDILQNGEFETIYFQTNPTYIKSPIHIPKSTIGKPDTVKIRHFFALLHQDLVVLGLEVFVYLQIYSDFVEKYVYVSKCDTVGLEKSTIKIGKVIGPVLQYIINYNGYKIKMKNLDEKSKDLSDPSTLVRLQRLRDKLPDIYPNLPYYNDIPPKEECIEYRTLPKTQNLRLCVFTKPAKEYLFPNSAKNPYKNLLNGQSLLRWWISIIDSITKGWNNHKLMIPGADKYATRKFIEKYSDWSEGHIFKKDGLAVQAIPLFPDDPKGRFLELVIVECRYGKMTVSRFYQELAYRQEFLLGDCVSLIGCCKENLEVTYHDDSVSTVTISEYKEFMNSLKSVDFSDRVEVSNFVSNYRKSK", "experiment": "Rtt109/Vps75 acetyltransferase inhibitor potency, dose response, biochemical, cherry-picked hits, plate reader (AID 588764);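 on activity change, negative = inhibition: 0% = neutral control wells and -100% = no enzyme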", "conditions": "Rtt109/Vps75 HAT activity", "units": {"AC50": "µM"}, "values": [{"smiles": "O=C(O)C1CCc2sc3[nH]c(=S)n(-c4ccccc4)c(=O)c3c21", "note": "(stereo not given)", "AC50": 9.94}, {"smiles": "CCCCCCCCCCCCCCCC[N+](C)(C)CCN(Cc1ccc(OC)cc1)c1ncccn1", "AC50": 16.1}]}, {"biological_target": "Histone acetyltransferase RTT109 (Candida albicans (strain SC5314 / ATCC MYA-2876)) (UniProt Q5AAJ8)", "experiment": "Rtt109/Vps75 acetyltransferase inhibitor potency, dose response, biochemical, cherry-picked hits, plate reader (AID 588764)", "conditions": "Rtt109/Vps75 HAT activity, at 19.5 µM (top of the series)", "values": [{"smiles": "CCOC(=O)C1=C(C)N=c2s/c(=C\\c3ccc(OCC(=O)O)cc3)c(=O)n2C1c1ccc(OC(C)C)cc1", "note": "(stereo not given)", "activity change, negative = inhibition": "inactive"}, {"smiles": "Cn1c(=O)c2c(nc(NC3CCCCC3)n2CC(=O)C23CC4CC(CC(C4)C2)C3)n(C)c1=O", "activity change, negative = inhibition": "inactive"}, {"smiles": "Cc1ccc(C2=NC(C)(C)N=C2SCC(=O)Nc2ccc(Cl)cc2)cc1", "activity change, negative = inhibition": "inactive"}, {"smiles": "CN(c1ccc(C(=O)Nc2ccc3c(c2)OCO3)cc1)S(C)(=O)=O", "activity change, negative = inhibition": "inactive"}, {"smiles": "O=C(O)COc1ccccc1O", "activity change, negative = inhibition": "inactive"}, {"smiles": "COc1ccc(S(=O)(=O)N(C)C)cc1NC(=O)Cc1ccc(S(=O)(=O)N2CCOCC2)s1", "activity change, negative = inhibition": "inactive"}, {"smiles": "CCOc1ccccc1N1CCN(C(=O)c2ccncc2)CC1", "activity change, negative = inhibition": "inactive"}, {"smiles": "Cc1ccc(C(=O)NCCNC(=O)COc2ccccc2Cl)cn1", "activity change, negative = inhibition": "inactive"}, {"smiles": "CC(=O)Nc1ccc(OCC(=O)NCc2ccccc2)cc1", "activity change, negative = inhibition": "inactive"}, {"smiles": "Cc1cc(C)cc(NC(=O)NC(C)C2CCCO2)c1", "note": "(stereo not given)", "activity change, negative = inhibition": "inactive"}, {"smiles": "CC(C)c1ccc(NC(=O)NC(C)c2ccc3c(c2)OCO3)cc1", "note": "(stereo not given)", "activity change, negative = inhibition": "inactive"}, {"smiles": "CC(C)C(C(=O)Nc1cccnc1)N1C(=O)c2ccccc2C1=O", "note": "(stereo not given)", "activity change, negative = inhibition": "inactive"}, {"smiles": "CCn1c(CCn2c3ccccc3c3ccccc32)n[nH]c1=S", "activity change, negative = inhibition": "inactive"}, {"smiles": "COc1ccc(OC)c(/C=C2\\SC(=S)N(C(C(=O)O)c3ccccc3)C2=O)c1", "note": "(stereo not given)", "activity change, negative = inhibition": "inactive"}, {"smiles": "CCOc1ccc(N2C(=O)CC(Sc3ccccc3C(=O)O)C2=O)c([N+](=O)[O-])c1", "note": "(stereo not given)", "activity change, negative = inhibition": "inactive"}, {"smiles": "Cc1nonc1OCCn1c([N+](=O)[O-])cnc1C", "activity change, negative = inhibition": "inactive"}, {"smiles": "Cc1ccccc1C(=O)NC(NC(=S)Nc1ccc(S(N)(=O)=O)cc1)C(Cl)(Cl)Cl", "note": "(stereo not given)", "activity change, negative = inhibition": "inactive"}, {"smiles": "CCOC(=O)C1CCCN(c2cc(=O)n(C3CCCCC3)c(=O)[nH]2)C1", "note": "(stereo not given)", "activity change, negative = inhibition": "inactive"}]}]}
